Measured values from ChEMBL document CHEMBL4043272, “Synthesis and in vitro biological evaluation of new pyrimidines as glucagon-like peptide-1 receptor agonists” (Bioorg Med Chem Lett, 2017).
Activity calls are given as the source filed them. The calls are words filed in the database; no cut-off is given here.

Tests used:
Type in all cases: cell-based
[1] = molecular target: T1, Glucagon-like peptide 1 receptor (Mus musculus) (UniProt O35659); assay: Agonist activity at GLP1 receptor in mouse BetaTC6 cells assessed as increase in insulin secretion at 10^-15 to 10^-12 M after 120 mins by sandwich ELISA
T1 sequence (whole entry): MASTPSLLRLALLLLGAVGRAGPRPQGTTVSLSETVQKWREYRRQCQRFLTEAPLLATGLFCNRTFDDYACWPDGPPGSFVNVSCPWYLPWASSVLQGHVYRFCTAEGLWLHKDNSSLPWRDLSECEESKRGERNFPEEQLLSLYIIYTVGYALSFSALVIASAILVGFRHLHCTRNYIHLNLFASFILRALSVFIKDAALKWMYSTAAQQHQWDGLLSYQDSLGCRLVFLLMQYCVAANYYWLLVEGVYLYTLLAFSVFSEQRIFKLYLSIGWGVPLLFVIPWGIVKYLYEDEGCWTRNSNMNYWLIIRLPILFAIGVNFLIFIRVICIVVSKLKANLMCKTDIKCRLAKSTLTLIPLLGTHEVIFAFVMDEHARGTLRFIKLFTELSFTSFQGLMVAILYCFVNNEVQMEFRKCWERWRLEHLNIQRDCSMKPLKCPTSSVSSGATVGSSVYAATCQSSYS

[2] = molecular target: T1, Glucagon-like peptide 1 receptor (Mus musculus); assay: Agonist activity at GLP1 receptor in mouse BetaTC6 cells assessed as increase in glucose-dependent insulin secretion at 10^-15 M after 120 mins by sandwich ELISA
[3] = molecular target: T1, Glucagon-like peptide 1 receptor (Mus musculus); assay: Agonist activity at GLP1 receptor in mouse BetaTC6 cells assessed as increase in glucose-dependent insulin secretion after 120 mins by sandwich ELISA
[4] = molecular target: T1, Glucagon-like peptide 1 receptor (Mus musculus); assay: Agonist activity at GLP1 receptor in mouse BetaTC6 cells assessed as increase in insulin secretion at 10^-15 to 10^-9 M after 120 mins by sandwich ELISA
[5] = molecular target: T1, Glucagon-like peptide 1 receptor (Mus musculus); assay: Agonist activity at GLP1 receptor in mouse BetaTC6 cells assessed as increase in glucose-dependent insulin secretion at 10^-15 to 10^-9 M after 120 mins by sandwich ELISA

## c1ccc(CNc2ccnc(NC3CCCCCC3)n2)cc1
[1]
  Activity: Active
[2]
  Activity: Active

## Cc1ccc(S(=O)(=O)NC(=O)Nc2ccnc(N)n2)cc1
[3]
  Activity: inactive
[4]
  Activity: Active

## O=C(Nc1nccc(N/N=C/c2ccc(F)cc2)n1)NC1CCCC1
[1]
  Activity: Active
[5]
  Activity: inactive
